In patent US9693994B2, “Class IIa HDAC inhibitors for the treatment of infection” (Research Development Foundation, priority 2014, dated 2017):
Where two headings read alike, the source gives them in different places.

Columns and labels:
[1] = target: histone deacetylase; settings: Yoshida et al., 1990; read-out: Ki, inhibitor of histone deacetylase; cited from earlier work
[2] = Leptin injection in ob/ob mice: norepinephrine, cAMP and HDAC4 in adipose
[3] = system: Bone Marrow Macrophages (BMMs); assay: Cytokine mRNA and secretion in LPS-treated bone marrow macrophages; type: cell-based, mouse
[4] = system: NF-κB subunit p65; assay: NF-κB signalling, immunoblot and ChIP in LPS-treated BMMs; type: cell-based, mouse
Procedure: Bone marrow macrophage cells (BMMs) were prepared from mouse bone marrow cells as described ([…] and Porse, 2008). BMMs were plated in 150-mm plates and exposed to LPS (10 ng/ml) with or without PGE2 (100 nM) for 1 hr. ChIP assays were performed as described (Screaton et al., 2004). RNA was isolated by RNeasy kit (Qiagen).

[5] = system: HDAC4; assay: HDAC4 dephosphorylation and localization in BMMs; type: cell-based, mouse; settings: wild-type BMMs, PGE2 in combination with LPS
Procedure: Bone marrow macrophage cells (BMMs) were prepared from mouse bone marrow cells as described (Weischenfeldt and Porse, 2008).

[6] = LPS-induced sepsis: survival and circulating cytokines; type: in vivo, mice; settings: for effect on survival after LPS: wild-type/control mice
Procedure: Cytokine and Metabolite Analysis: Mice were injected with LPS (30 mg/kg) with or without Rolipram (5 mg/kg for 16 hours (h) and serum was obtained through cardiac puncture. BMMs were stimulated with LPS (10 ng/ml) with or without PGE2 (100 nM) for 16 hr and supernatant was collected.
All mice were housed in colony cages with a 12 hr light/dark cycle in a temperature-controlled environment. For LPS-induced sepsis, mice were injected intraperitoneally with 30 mg/kg LPS or PBS (UT). Survival after LPS was monitored. For studies with KO mice, age-matched wild-type littermates were employed as controls.

[7] = Glucose and insulin tolerance testing in HFD-fed mice; type: in vivo; settings: rolipram 7 days
Procedure: For HFD studies, 6-week-old mice were transferred to a 60% HFD (Research Diets, D12492) for 4 to 12 weeks as indicated. Magnetic resonance imaging scans for fat and lean mass were performed using an Echo MRI-100 instrument according to the manufacturer's instructions. For metabolic cage studies, mice were individually housed for at least 2 days. Food intake, total activity, oxygen consumption and carbon dioxide production were simultaneously measured for individually housed mice with a LabMaster system (TSE Systems). Data were collected for 2-3 days and analyzed. For glucose tolerance testing, mice were fasted for 16 h and then injected i.p. with glucose (1.5 g/kg). For insulin tolerance testing, mice were fasted 2 h and injected i.p. with insulin (Humulin; 1 U/kg). Rolipram (5 mg/kg/day) was injected i.p. for 7 days. Blood was collected from the tail vein and glucose levels were measured with a One Touch Ultra Glucometer (Johnson & Johnson).

Molecule: CC(/C=C/C(=O)NO)=C\[C@@H](C)C(=O)c1ccc(N(C)C)cc1 [Trichostatin A, (2E,4E,6R)-7-(4-(Dimethylamino)phenyl)-N-hydroxy-4,6-dimethyl-7-oxo-2,4-heptadienamide]
- Ki [1]: ~3.4 nM

Molecule: CC(C)NCC(O)COc1cccc2ccccc12 (stereo not shown) [propranolol]
- leptin-induced HDAC4 de-phosphorylation in WAT ([2]; leptin plus propranolol): propranolol-sensitive
- leptin-induced rise in cAMP ([2]; ob/ob mice, leptin plus β adrenergic antagonist): blocked

Molecule: pertussis toxin
- cytokine gene expression [3]: lowered

Molecule: CN[C@@H]1C[C@H]2O[C@@](C)([C@@H]1OC)n1c3ccccc3c3c4c(c5c6ccccc6n2c5c31)C(=O)NC4 [staurosporine]
- cytokine gene expression ([3]; BMMs exposed to LPS, pre-treatment with SIK inhibitor 10 nM): decreased

Molecule: cholera toxin
- cytokine gene expression [3]: lowered

Molecule: CCCCC[C@H](O)/C=C/[C@H]1[C@H](O)CC(=O)[C@@H]1C/C=C\CCCC(=O)O [PGE2, Prostaglandin E2]
- pro-inflammatory cytokine mRNA amounts and secretion ([3]; cultured BMMs exposed to LPS): reduced
- IL10 mRNA and protein secretion ([3]; wild-type BMMs, LPS plus PGE2): upregulated
- activation of P38 or JNK, phosphorylation of IκBα or p65 in response to LPS ([4]; BMMs, LPS plus PGE2): did not interfere
- p65 recruitment to the TNFα and IL12β promoters ([4]; BMMs, LPS plus PGE2 compared to LPS alone): reduced
- amounts of acetylated p65 in HDAC4 MKO cells ([4]; HDAC4 MKO BMMs, LPS plus PGE2): did not reduce
- LPS-dependent increases in p65 and histone H4K5 acetylation over cytokine promoters ([4]; wild-type BMMs, LPS plus PGE2): blocked
- HDAC4 dephosphorylation at Ser246 and nuclear translocation [5]: triggered

Molecule: COc1ccc(C2CNC(=O)C2)cc1OC1CCCC1 (stereo not shown) [Rolipram]
- effect on LPS-induced cytokine release (circulating TNFα, IL12β) ([6]; C57BL/6J mice, LPS 30 mg/kg, Rolipram 5 mg/kg co-administered): blocked
- effect on survival after LPS in HDAC4 MKO mice ([6]; HDAC4 MKO littermates, LPS plus rolipram): modest effects
- effect on survival after LPS ([6]; LPS 30 mg/kg, Rolipram 5 mg/kg co-administered): blocked
- effect on survival after LPS ([6]; LPS 30 mg/kg, Rolipram 5 mg/kg co-administered, listed as rolipram): improved survival
- glucose tolerance and insulin sensitivity in HDAC4 MKO ([7]; HDAC4 MKO littermates on HFD): not
- glucose tolerance and insulin sensitivity ([7]; wild-type mice on HFD): improved

B1: leptin: hormone injected into ob/ob mice; triggers catecholamine-dependent increases in cAMP signaling (protein, UniProt P41160 22-167, looked up)
Leptin: VPIQKVQDDTKTLIKTIVTRINDISHTQSVSAKQRVTGLDFIPGLHPILSLSKMDQTLAVYQQVLTSLPSQNVLQIANDLENLRDLLHLLAFSKSCSLPQTSGLQKPESLDGVLEASLYSTEVVALSRLQGSLQDILQQLDVSPEC
- HDAC4 de-phosphorylation in WAT ([2]; leptin administration): promoted
- nuclear translocation of HDAC4 in adipose resident macrophages ([2]; leptin administration): stimulated
- circulating concentrations of norepinephrine and cAMP content in epididymal fat pads ([2]; ob/ob mice, leptin injection): upregulated
